This is an account of results in patent publication US8614201B2 (Janssen Pharmaceutica NV, priority 2009, dated 2013).

Structures are written as SMILES. pIC50: −log10 of the molar value.

The pIC50 is the negative decadic logarithm of the IC50, by convention in mol/L.

Human TRPA1, sequence (O75762 whole entry): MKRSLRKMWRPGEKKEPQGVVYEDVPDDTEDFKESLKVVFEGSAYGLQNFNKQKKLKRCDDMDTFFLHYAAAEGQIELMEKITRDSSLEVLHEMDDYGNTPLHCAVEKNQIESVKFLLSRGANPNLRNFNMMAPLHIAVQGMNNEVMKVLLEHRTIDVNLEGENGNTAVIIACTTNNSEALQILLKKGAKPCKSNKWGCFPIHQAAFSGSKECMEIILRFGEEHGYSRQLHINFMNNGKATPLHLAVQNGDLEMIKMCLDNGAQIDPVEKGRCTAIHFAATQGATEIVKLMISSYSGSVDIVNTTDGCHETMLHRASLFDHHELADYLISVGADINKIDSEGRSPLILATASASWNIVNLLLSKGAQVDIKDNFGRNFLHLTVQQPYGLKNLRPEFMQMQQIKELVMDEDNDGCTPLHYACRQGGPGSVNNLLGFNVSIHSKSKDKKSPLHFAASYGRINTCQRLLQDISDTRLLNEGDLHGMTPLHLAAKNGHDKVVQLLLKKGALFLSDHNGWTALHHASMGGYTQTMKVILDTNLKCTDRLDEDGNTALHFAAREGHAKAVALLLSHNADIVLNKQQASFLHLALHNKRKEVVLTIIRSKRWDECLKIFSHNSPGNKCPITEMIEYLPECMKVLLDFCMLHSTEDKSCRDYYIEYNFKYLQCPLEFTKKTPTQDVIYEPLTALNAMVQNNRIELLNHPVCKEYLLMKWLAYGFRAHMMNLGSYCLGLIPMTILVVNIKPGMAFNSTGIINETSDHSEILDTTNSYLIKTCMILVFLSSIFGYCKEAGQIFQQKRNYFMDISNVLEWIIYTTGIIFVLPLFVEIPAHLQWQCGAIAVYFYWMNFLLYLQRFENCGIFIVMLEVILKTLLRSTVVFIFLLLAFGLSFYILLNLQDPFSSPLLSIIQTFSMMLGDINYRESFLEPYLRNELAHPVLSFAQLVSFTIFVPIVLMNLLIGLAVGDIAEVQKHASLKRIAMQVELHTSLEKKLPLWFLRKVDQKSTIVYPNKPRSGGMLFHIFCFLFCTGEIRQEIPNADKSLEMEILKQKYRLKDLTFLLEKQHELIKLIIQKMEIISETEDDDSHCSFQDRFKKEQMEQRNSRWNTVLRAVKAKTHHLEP

The test has as its target Human TRPA1 (Homo sapiens, UniProt O75762). Put plainly: Alternative TRPA1 Ca2+ fluorometry assay (hTRPA1/TREx-HEK293 cells, Fluo-4, FDSS 6000). More on the design: expressed in transfected cells. Conditions: Fluo-4-AM, agonist 6,11-dihydro-5H-dibenzo[b,e]azepine-10-carboxylic acid methyl ester 25 nM, procedure used for Examples 184, 190 to 192, 194 to 316. Type of test: cell-based. The gist of the method: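 Tetracycline-induced (50 ng/ml, 24 h) hTRPA1/TREx-HEK293 cells were loaded with Fluo-4-AM and probenecid. Compound (1% DMSO final) was added after a 12 s baseline and the Ca2+ signal followed for 14 min, then 25 nM TRPA1 agonist dibenzazepine carboxylic acid methyl ester was applied. Signal is Em540 (ex 488 nm) relative to the first baseline reading.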
For the molecule `O=C(NCc1cc(-c2ccc(C(F)(F)F)cc2)nc(N2CCN(c3ccccc3F)CC2)n1)[C@@H]1CCCN1S(=O)(=O)c1cccc(F)c1` [Example 270, 1-(3-Fluoro-benzenesulfonyl)-pyrrolidine-2S-carboxylic acid [2-[4-(2-fluoro-phenyl)-piperazin-1-yl]-6-(4-trifluoromethyl-phenyl)-pyrimidin-4-ylmethyl]-amide], the pIC50 was 6.16.

`O=C(NCc1cc(-c2cccc(Cl)c2)nc(N2CCN(c3ccccc3F)CC2)n1)[C@@H]1CCCN1S(=O)(=O)c1ccc(F)cc1` [Example 239, 1-(4-Fluoro-benzenesulfonyl)-pyrrolidine-2S-carboxylic acid {6-(3-chloro-phenyl)-2-[4-(2-fluoro-phenyl)-piperazin-1-yl]-pyrimidin-4-ylmethyl}-amide] showed a negative-log IC50 (pIC50) of 5.30. The result for `O=C(NCc1cc(-c2ccc(Br)cc2)nc(N2CCN(c3ccccn3)CC2)n1)[C@@H]1CCCN1S(=O)(=O)c1ccc(F)cc1` [Example 216, 1-(4-Fluoro-benzenesulfonyl)-pyrrolidine-2S-carboxylic acid [6-(4-bromo-phenyl)-2-(4-pyridin-2-yl-piperazin-1-yl)-pyrimidin-4-ylmethyl]-amide] reads 5.92; that for `O=C(NCc1cc(-c2ccccc2F)nc(N2CCN(c3ccccc3F)CC2)n1)[C@@H]1CCCN1S(=O)(=O)c1ccc(F)cc1` [Example 245, 1-(4-Fluoro-benzenesulfonyl)-pyrrolidine-2S-carboxylic acid {6-(2-fluoro-phenyl)-2-[4-(2-fluoro-phenyl)-piperazin-1-yl]-pyrimidin-4-ylmethyl}-amide], 5.61. In turn, `O=C(NCc1cc(-c2ccc(C(F)(F)F)cc2)nc(N2CCN(c3ccccc3F)CC2)n1)[C@@H]1CCCN1S(=O)(=O)c1ccc(F)c(Cl)c1` [Example 259, 1-(3-Chloro-4-fluoro-benzenesulfonyl)-pyrrolidine-2S-carboxylic acid [2-[4-(2-fluoro-phenyl)-piperazin-1-yl]-6-(4-trifluoromethyl-phenyl)-pyrimidin-4-ylmethyl]-amide] had a pIC50 of 5.45.

Molecule `CN1CCCN(c2nc(CNC(=O)[C@@H]3CCCN3S(=O)(=O)c3ccc(F)cc3)cc(-c3ccc(Br)cc3)n2)CC1` [Example 218, 1-(4-Fluoro-benzenesulfonyl)-pyrrolidine-2S-carboxylic acid [6-(4-bromo-phenyl)-2-(4-methyl-[1,4]diazepan-1-yl)-pyrimidin-4-ylmethyl]-amide] showed a negative-log IC50 (pIC50) of less than 5.00. To `O=C(NCc1cc(-c2ccc(Br)cc2)nc(NCc2cccnc2)n1)[C@@H]1CCCN1S(=O)(=O)c1ccc(F)cc1` [Example 219, 1-(4-Fluoro-benzenesulfonyl)-pyrrolidine-2S-carboxylic acid {6-(4-bromo-phenyl)-2-[(pyridin-3-ylmethyl)-amino]-pyrimidin-4-ylmethyl}-amide] belongs approximately 5.57; to `CCCc1ccc(S(=O)(=O)N2CCC[C@H]2C(=O)NCc2cc(-c3ccc(C(F)(F)F)cc3)nc(N3CCN(c4ccccc4F)CC3)n2)cc1` [Example 265, 1-(4-Propyl-benzenesulfonyl)-pyrrolidine-2S-carboxylic acid [2-[4-(2-fluoro-phenyl)-piperazin-1-yl]-6-(4-trifluoromethyl-phenyl)-pyrimidin-4-ylmethyl]-amide], less than 5.00. To `O=C(NCc1cc(-c2ccc(Br)cc2)nc(N2CCC(Cc3ccccc3)CC2)n1)[C@@H]1CCCN1S(=O)(=O)c1ccc(F)cc1` [Example 213, 1-(4-Fluoro-benzenesulfonyl)-pyrrolidine-2S-carboxylic acid [2-(4-benzyl-piperidin-1-yl)-6-(4-bromo-phenyl)-pyrimidin-4-ylmethyl]-amide] belongs 5.62. To `O=C(NCc1cc(-c2ccc(C(F)(F)F)cc2)nc(NCCN2CCOCC2)n1)[C@@H]1CCCN1S(=O)(=O)c1ccc(F)cc1` [Example 315, 1-(4-Fluoro-benzenesulfonyl)-pyrrolidine-2S-carboxylic acid [2-(2-morpholin-4-yl-ethylamino)-6-(4-trifluoromethyl-phenyl)-pyrimidin-4-ylmethyl]-amide] belongs approximately 6.35; to `CC1CCN(c2nc(CNC(=O)[C@@H]3CCCN3S(=O)(=O)c3ccc(F)cc3)cc(-c3ccc4c(c3)OCO4)n2)CC1` [Example 306, 1-(4-Fluoro-benzenesulfonyl)-pyrrolidine-2S-carboxylic acid [6-benzo[1,3]dioxol-5-yl-2-(4-methyl-piperidin-1-yl)-pyrimidin-4-ylmethyl]-amide], approximately 5.68.

`O=C(NCc1cc(-c2ccc(C(F)(F)F)cc2)nc(NC2CCc3ccccc32)n1)[C@@H]1CCCN1S(=O)(=O)c1ccc(F)cc1` (stereo partly drawn) [Example 307, 1-(4-Fluoro-benzenesulfonyl)-pyrrolidine-2S-carboxylic acid [2-(indan-1-ylamino)-6-(4-trifluoromethyl-phenyl)-pyrimidin-4-ylmethyl]-amide] had a pIC50 of approximately 6.45.

The molecule `C#CCNc1nc(CNC(=O)[C@@H]2CCCN2S(=O)(=O)c2ccc(F)cc2)cc(-c2ccc(C(F)(F)F)cc2)n1` [Example 291] had a pIC50 of approximately 6.39. To `O=C(NCc1cc(-c2ccccc2)nc(N2CCN(c3ccccc3F)CC2)n1)[C@@H]1CCCN1S(=O)(=O)c1ccc(F)cc1` [Example 251, 1-(4-Fluoro-benzenesulfonyl)-pyrrolidine-2S-carboxylic acid {2-[4-(2-fluoro-phenyl)-piperazin-1-yl]-6-phenyl-pyrimidin-4-ylmethyl}-amide] belongs 5.60.

As for `CC(Nc1nc(CNC(=O)[C@@H]2CCCN2S(=O)(=O)c2ccc(F)cc2)cc(-c2ccc3c(c2)OCO3)n1)c1ccccc1` (stereo partly drawn) [Example 311, 1-(4-Fluoro-benzenesulfonyl)-pyrrolidine-2S-carboxylic acid [6-benzo[1,3]dioxol-5-yl-2-(1-phenyl-ethylamino)-pyrimidin-4-ylmethyl]-amide], the pIC50 was approximately 5.82.

`O=C(NCc1cc(-c2ccc3c(c2)OCO3)nc(NCCc2ccccn2)n1)[C@@H]1CCCN1S(=O)(=O)c1ccc(F)cc1` [Example 203, 1-(4-Fluoro-benzenesulfonyl)-pyrrolidine-2S-carboxylic acid [6-benzo[1,3]dioxol-5-yl-2-(2-pyridin-2-yl-ethylamino)-pyrimidin-4-ylmethyl]-amide] had a pIC50 of approximately 5.19. Consider `CCCCNc1nc(CNC(=O)[C@@H]2CCCN2S(=O)(=O)c2ccc(F)cc2)cc(-c2ccc(Br)cc2)n1` [Example 215, 1-(4-Fluoro-benzenesulfonyl)-pyrrolidine-2S-carboxylic acid [6-(4-bromo-phenyl)-2-butylamino-pyrimidin-4-ylmethyl]-amide], for which the pIC50 is 5.99. The result for `N#Cc1ccc(-c2cc(CNC(=O)[C@@H]3CCCN3S(=O)(=O)c3ccc(F)cc3)nc(N3CCN(c4ccccc4F)CC3)n2)cc1` [Example 229, 1-(4-Fluoro-benzenesulfonyl)-pyrrolidine-2-carboxylic acid {6-(4-cyano-phenyl)-2-[4-(2-fluoro-phenyl)-piperazin-1-yl]-pyrimidin-4-ylmethyl}-amide] reads 5.80; that for `Cc1ccccc1-c1cc(CNC(=O)[C@@H]2CCCN2S(=O)(=O)c2ccc(F)cc2)nc(N2CCN(c3ccccc3F)CC2)n1` [Example 247, 1-(4-Fluoro-benzenesulfonyl)-pyrrolidine-2S-carboxylic acid {2-[4-(2-fluoro-phenyl)-piperazin-1-yl]-6-o-tolyl-pyrimidin-4-ylmethyl}-amide], approximately 5.84. In the case of `O=C(NCc1cc(-c2ccc(C(F)(F)F)cc2)nc(N2CCN(Cc3ccc4c(c3)OCO4)CC2)n1)[C@@H]1CCCN1S(=O)(=O)c1ccc(F)cc1` [Example 297, 1-(4-Fluoro-benzenesulfonyl)-pyrrolidine-2S-carboxylic acid [2-(4-benzo[1,3]dioxol-5-ylmethyl-piperazin-1-yl)-6-(4-trifluoromethyl-phenyl)-pyrimidin-4-ylmethyl]-amide], the pIC50 was 6.45. To `O=C(NCc1cc(-c2ccc(C(F)(F)F)cc2)nc(NC2CC2)n1)[C@@H]1CCCN1S(=O)(=O)c1ccc(F)cc1` [Example 192, 1-(4-Fluoro-benzenesulfonyl)-pyrrolidine-2S-carboxylic acid [2-cyclopropylamino-6-(4-trifluoromethyl-phenyl)-pyrimidin-4-ylmethyl]-amide] belongs approximately 6.23; to `O=C(NCc1cc(-c2ccc(C(F)(F)F)cc2)nc(NCCc2ccc(Cl)cc2Cl)n1)[C@@H]1CCCN1S(=O)(=O)c1ccc(F)cc1` [Example 195, 1-(4-Fluoro-benzenesulfonyl)-pyrrolidine-2S-carboxylic acid [2-[2-(2,4-dichloro-phenyl)-ethylamino]-6-(4-trifluoromethyl-phenyl)-pyrimidin-4-ylmethyl]-amide], 6.21.

In turn, `O=C(NCc1cc(-c2ccc(Br)cc2)nc(NCCO)n1)[C@@H]1CCCN1S(=O)(=O)c1ccc(F)cc1` [Example 293, 1-(4-Fluoro-benzenesulfonyl)-pyrrolidine-2S-carboxylic acid [6-(4-bromo-phenyl)-2-(2-hydroxy-ethylamino)-pyrimidin-4-ylmethyl]-amide] gave a pIC50 of 5.57. The result for `O=C(NCc1cc(-c2ccc3c(c2)OCO3)nc(NCc2cccnc2)n1)[C@@H]1CCCN1S(=O)(=O)c1ccc(F)cc1` [Example 201, 1-(4-Fluoro-benzenesulfonyl)-pyrrolidine-2S-carboxylic acid {6-benzo[1,3]dioxol-5-yl-2-[(pyridin-3-ylmethyl)-amino]-pyrimidin-4-ylmethyl}-amide] reads 5.09; that for `O=C(NCc1cc(-c2ccc(Br)cc2)nc(N2CCC[C@H]2CO)n1)[C@@H]1CCCN1S(=O)(=O)c1ccc(F)cc1` [Example 302, 1-(4-Fluoro-benzenesulfonyl)-pyrrolidine-2S-carboxylic acid [6-(4-bromo-phenyl)-2-(2S-hydroxymethyl-pyrrolidin-1-yl)-pyrimidin-4-ylmethyl]-amide], 5.06.
